What was measured:
MRGPRB4+ fibres = experiment: Two-photon in vivo calcium imaging (GCaMP3.0) of central afferent fibres through a spinal cord laminectomy, chemical stimuli; parameters: species or system mouse
Method: (§1) Mice expressing reporters and/or Cre recombinase targeted to the MrgprB4 locus were generated by homologous recombination in embryonic stem cells, according to standard procedures. Heterozygous neonates from MrgprD-Cre and MrgprB4-Cre mice were injected intraperitoneally with Cre-dependent AAV8 viruses expressing GCaMP3.0 or mGCaMP3.0 or hM3(Gq-coupled) DREADD, and imaged as adults (≧8 weeks old).
(§2) Electrophysiology experiments on ex vivo skin-nerve preparations from adult heterozygous Mrgprb4-EGFPf reporter mice were performed as described in Woodbury, et al. J. Comp. Neurol. 436, 304-323 (2001). For calcium imaging, after a dorsal laminectomy the spinal column was stabilized and filled with imaging solution (see below for details). Imaging was performed using a two-photon laser-scanning microscope (Ultima, Prairie Inc.) using an Olympus 40×0.8 N.A. water immersion objective, at 128×128 pixel resolution with an acquisition rate of 8-12 frames per second. Mechanical stimuli were delivered using a custom-modified No. 5 sable paint brush or serrated forceps, in a manner electronically time-stamped to image acquisition, as may be seen in FIGS. 18A-18C and further discussed below. Stimuli were delivered to each mouse in a series of trials, separated by a few minutes; each trial consisted of one or more stimuli delivered typically at intervals of several seconds. Chemical stimuli were delivered to the spinal cord using a Pipetman pipette and to the periphery using a syringe pump. Calcium responses were analysed using custom software written in Matlab (see below for more details). For calculating ΔF/F [(Fav−F0)/F0], F0 is the average of the first ten frames of the recording period.
(§3) Mice 2 months or older were sedated by i.p. injection of a mix of ketamine (100 mg/kg), xylazine (15 mg/kg), acepromazine (2.5 mg/kg in 0.9% NaCl). During surgery, body temperature was maintained at 37° C. with a heating blanket.
(§4) A dorsal laminectomy was performed mostly at spinal level L2-L4 (but occasionally at L1-L3) as described in Johannssen, et al. J. Physiol. (Lond.) 588:3397-3402 (2010), but without removing the dura. The spinal column was stabilized using Narishige STS-A spinal clamps. In addition a head-holding adaptor from Kopf (923-B Mouse Gas Anaesthesia Head Holder) was used that has installed an anaesthesia/gas mask for positioning the mouse head. In this apparatus the gas is applied through a standard hose barb positioned above the nose on the mask. The inlet fills a large gas chamber around the snout, a second hose barb below the mask is provided for vacuuming off excess, expelled gasses. The animals were maintained under continuous anaesthesia for the duration of the imaging experiments with 1-2% isofluorane or with hourly injections of the above ketamine mix. A well was built around the exposed spinal cord using Gelseal (Amersham Biosciences Corp) and Kwik Sil Adhesive (WPI). Warm imaging solution (in mM: 130 NaCl, 3 KCl, 2.5 CaCl2, 0.6 6H2O.MgCl2, 10 HEPES without Na, 1.2 NaHCO3, 10 glucose, pH7.45 with NaOH) (37° C.) was repeatedly applied to prevent drying and maintain tissue integrity, and to allow the use of immersion objectives. During imaging the body temperature of the animals was maintained at 37° C. with a heating blanket and an air-therm heater (WPI) placed inside the microscope area.
(§5) Imaging experiments were performed under a two-photon laser-scanning microscope (Ultima, Prairie Instruments Inc.). Live images were acquired at 8-12 frames per second, at depths below the pia ranging from 100 to 250 μm, using an Olympus 40×0.8 N.A. water immersion objective, at 128×128 pixel resolution with a laser tuned to 940 nm wavelength, and emission filters 525/50 nm and 595/50 nm for green and red fluorescence, respectively. Laser power was adjusted to be 20-25 mW at the focal plane (maximally 35 mW), depending on the imaging depth and level of expression of GCaMP3.0. […]

MRGPRD+ fibres = experiment: as above; parameters: species or system mouse
Method: as §1, §2, §3, §4, §5

[1] = test system: MRGPRB4+ neurons engineered to express TRPV1; experiment: Calcium imaging after peripheral injection of capsaicin in MrgprB4-Cre; Rosa26-loxP-STOP-loxP-TrpV1 mice; format: in vivo, mouse; details: adult MrgprB4-Cre, peripheral injection (10 μl of 1 mM)
Method: α,β-methyl ATP (10 μl from 1 mM solution) and capsaicin (10 μl from 1 mM solution (10% DMSO in saline)) was injected in the ventral and dorsal hindpaw of MrgprD and MrgprB4 mice, respectively, using a syringe pump (WPI, Inc., sp200i syringe pump). The timing of the injection was controlled by the two-photon image acquisition system and associated software (Prairie View and Trigger Sync, Prairie Technologies) to link it with image acquisition.
In the case of chemical stimulation (delivered either to the spinal cord or to the periphery), typically a single trial was performed for a given mouse, due to the difficulty of maintaining the same focal plane during the period of application of the chemical to the spinal cord or the period required for diffusion of the liquid bolus delivered for peripheral injection, respectively. In these cases, therefore, the MPI ΔF/Fpeak before and during the stimulation period were calculated for multiple mice imaged using ROIs of similar size, and were compared for statistical significance (relative to pre-stimulus baseline) by repeated measures ANOVA, followed by Bonferroni-corrected post-hoc comparison of means (unless stated otherwise). The ΔF/F values in FIGS. 11B and 11E were corrected for photobleaching as described in Berry, et al. Neuron 74:530-542 (2012). […]

[2] = direct application to the spinal cord, KCl 60 mM, n=3
[3] = injection into the dorsal (hairy) skin of the hindpaw (10 μl of 1 mM), n=3
[4] = injection into the glabrous skin of the hind paw (10 μl of 1 mM), n=3
[5] = spinal application, 5 mM, mean ± range, n=2

Question: [Cl-].[K+] [KCl] was tested. Which “activation of fibres after application to the spinal cord (positive control)” value (MRGPRB4+ fibres; KCl, same field of view as the CNO test in GCaMP3.0-only mice) did it give?
Answer: The value was “robust activation”.

Question: What about the “mean latency to peak (MLP)” value (MRGPRB4+ fibres; [2]) of the same molecule?
Answer: Its value is 9.3 ± 4.15 s.

Question: What about the “mean percent increase in peak ΔF/F (MPI ΔF/Fpeak)” value (MRGPRB4+ fibres; [2]) of the same molecule?
Answer: The value was 201.6±33.2%.

Question: And the “mean percent increase in peak ΔF/F (MPI ΔF/Fpeak)” value (MRGPRD+ fibres; direct application to the spinal cord, KCl 60 mM, mean ± s.e.m., n=3)?
Answer: The value was 222±19%.

Question: And the “mean latency to peak (MLP)” value (MRGPRD+ fibres; [2])?
Answer: The value was 8.6 ± 3.6 s.

Question: For COc1cc(CNC(=O)CCCC/C=C/C(C)C)ccc1O [capsaicin], which “calcium transients evoked by peripheral injection” value (“calcium transients evoked” for short) (MRGPRB4+ fibres; control MrgprB4-Cre mice without TRPV1, peripheral injection) is on record?
Answer: Its value is “no such signals were observed”.

Question: And the “calcium transients evoked” value [1]?
Answer: Its value is “induced robust calcium transients”.

Question: With Nc1ncnc2c1ncn2[C@@H]1O[C@H](COP(=O)(O)CP(=O)(O)OP(=O)(O)O)[C@@H](O)[C@H]1O [α,β Me-ATP, α,β-methylene (Me) ATP] as the molecule, how does the MLP (MRGPRB4+ fibres; [3]) read?
Answer: Its MLP is 21.9 ± 12.6 s.

Question: And the “MPI [ΔF/F]peak” value (MRGPRB4+ fibres; [3])?
Answer: The value was 142±0.6%.

Question: And the “calcium transients evoked” value (MRGPRB4+ fibres; mice expressing GCaMP3.0 but not TRPV1 in MrgprB4+ neurons, FIG. 8F)?
Answer: Its value is “exhibit calcium transients”.

Question: What about the “calcium response after application to the spinal cord” value (MRGPRD+ fibres; MrgD mice, FIG. 7E) of the same molecule?
Answer: The value was “induced a strong calcium response”.

Question: What about the MLP (MRGPRD+ fibres; [4]) of the same molecule?
Answer: Its MLP is 25.7 ± 10.5 s.

Question: What about the “MPI [ΔF/F]peak” value (MRGPRD+ fibres; [4]) of the same molecule?
Answer: The value was 137±51%.

Question: What about the MLP (MRGPRD+ fibres; [5]) of the same molecule?
Answer: The MLP was 16.3±1.3.

Question: What about the “MPI [ΔF/F]peak” value (MRGPRD+ fibres; [5]) of the same molecule?
Answer: The value was 249±54%.

Source: patent US20140178305A1, “IDENTIFICATION AND USE OF ANXIOLYTIC COMPOUNDS” (CALIFORNIA INSTITUTE OF TECHNOLOGY, priority 2012, published 2014)
